Earlier results on five molecules are cited in US6558710B1, “Topical zinc compositions and methods of use” (priority 1999, dated 2003).

Where two headings read alike, the source gives them in different places.

The conditions of data set [1]: solutions of 0.2-1%, applied circumorally.
For another data set, the system named is HIV. The settings on record: 1-1.5% zinc acetate, 2 hours, in vitro (U.S. Pat. No. 5,545,673).

With `[Cl-].[Cl-].[Zn+2]` [zinc chloride], the dermal irritancy result (1% aqueous) is given as “severely irritant”.
On to `[O]=[Zn]` [zinc oxide], for which, where the note is “20% suspension”, the dermal irritancy entry is “not overtly irritant”. Moreover, the “stimulation of epidermal healing” value (in comparison to the more irritating and more water-soluble zinc salts) is “only marginally effective”.
zinc pyrithione: the dermal irritancy entry (20% suspension) is reported as “not overtly irritant”.
For `O=S(=O)([O-])[O-].[Zn+2]` [zinc sulfate], the dermal irritancy result (1% aqueous) was “not overtly irritant”. The “irritation and side effects” value in data set [1] was “severe irritation, unpleasant dryness and stimulate the emetic reflex”.
Take `CC(=O)[O-].CC(=O)[O-].[Zn+2]` [zinc acetate]: the dermal irritancy result (20% aqueous) is reported as “slightly less irritant”. The HIV infectivity result in the data set on HIV was “reduced or completely eliminated”.
